Data reported in patent US7264808B2, “Synthetic peptide for neurological disorders” (priority 2000, dated 2007).

Experiments:
[1] = cited from earlier work
[2] = tested on: NGF, NT-3 and bFGF; details: animals; brain areas associated with memory loss; cited from earlier work
[3] = tested on: PC12 cells; test: Neurite outgrowth on PC12 cells; type: cell-based, rat; details: for Neurites on PC12: concentration producing neurite outgrowth, read after 72 hours
Description: The trypsin digested fragments in various concentrations were tested for neurite out growth on PC12 cells. Tissue culture plate having 24 wells were seeded with 10^5 PC12 cells in serum free Dulbeco Modified Eagle's medium (DMEM). The results were read after 72 hours for neurite outgrowth. The fraction showing the most neurite outgrowth at the lowest concentration was sequenced for its amino acids composition. Sequencing was contracted out to the Protein Core Laboratory of Baylor College of Medicine, Houston, Tex.

[4] = tested on: Anti-V-NGF; test: ELISA titer of specimens with Anti-V-NGF; type: binding; details: in comparison to Anti-H-NGF
Description: (§1) Enzyme-Linked Immunosorbent Assay (ELISA): The binding affinity of Anti-ADESH made against ADESH consisting of ten amino acids (AD-10), to various specimens known to contain NGF, such as venoms, body fluids, saliva, serum, urine etc. was studied by ELISA. The ELISA binding of Anti-AD-10 was compared to Anti-NGF made against cobra venom. ELISA tests were performed in 96 well microtiter plate. The wells of the plate were coated with one concentration of antigen, diluted in PBS each well receiving 100 μL. The plate was incubated at room temperature (RT) for 16 to 18 hours after which it was three times (3×) with PBS. The wells of the plate were blocked with 0.25 ml/well of 3% Teleostean gelatin from cold water fish (Sigma) for ½ hour at RT. Anti-AD-10 and Anti-NGFs were diluted threefold in gelatin were added to the appropriate wells of ELISA plate, including positive and negative controls. The plate was incubated at 37° C. for 1 to 1.5 hours. After washing 3X times horseradish peroxidase conjugated with IgG made in goat (Sigma) was added and incubated for 1 hour. Finally, the plate was washed and reacted with O-Phenylenediamine Dihydrochloride (OPD) for color development. The test was after ½ hour for ELISA titers.

[5] = tested on: Anti-AD-10; test: ELISA titer of specimens with Anti-AD-10; type: binding, mice; details: for ELISA titer Anti-AD-10: Table II, specimen coated
Description: Adult Balb/C mice were used for immunization. The mice were used in compliance with the US Public Health Service Policy on humane care and use of animals. First injection consisted of the mixture 100 μg of each version of ADESH in 0.1 ml mixed with equal volume of Freund's complete adjuvant/mouse. The subsequent injections consisted of the mixture 100 μg of ADESH and equal volume of incomplete Freund's adjuvant/mouse. The mice were injected intramuscularly (IM) six times two weeks apart. At the end of the immunization the mice were bled through the ophthalmic veins and serum was separated.
as §1

[6] = tested on: PC12 cells; test: Toxicity to PC12 cells; type: cell-based, rat; details: toxic concentration on PC12 cells

Molecule | neurite outgrowth on PC12 cells (in words) [3] | ELISA titer Anti-AD-10 [5] | Toxicity to PC12 [6] [µg] | Neurites on PC12 [3] [µg] | further results
O=C(CCn1cnc2c(=O)[nH]cnc21)Nc1ccc(C(=O)[O-])cc1.[K+] [AIT-082] | – | – | – | – | absorption and activity after oral administration [1]: rapidly absorbed and active after oral administration; activation of genes producing neurotrophic factors in brain [2]: activate multiple genes in animals to produce three different neurotrophic factors
ADESH: name of the inventive peptides; in b30 the synthetic ADESH consisting of ten amino acids (AD-10) (NLGEHPVCDS) | equally active as the fragment of the native NGF | – | – | – | reaction with Anti-V-NGF (in words) [4]: react poorly
H-NGF saliva: NGF of human origin isolated from saliva | – | 2700 | – | – | –
H-NGF serum: NGF of human origin isolated from serum | – | 2700 | – | – | –
H-NGF urine: NGF of human origin isolated from urine | – | 2700 | – | – | –
N L G E H (NLGEH; SYNTHESIZED. CORRESPONDS TO FRAGMENT 7-11 OF SEQ. ID. NO. 1.) [AD-5, ID; NO: 4, first five amino acids] | biologically active in producing neurite outgrowth | 600 | >100 | 2 | –
N L G E H P V C D S (NLGEHPVCDS; SYNTHESIZED. SIMILAR TO FRAGMENT 7-16 OF SEQ. ID. NO. 1.) [AD-10] | biologically active in producing neurite outgrowth | 2700 | >100 | 1 | –
N L G E H P V C D S T D T W V (NLGEHPVCDSTDTWV; SYNTHESIZED. SIMILAR TO FRAGMENT 7-21 OF SEQ ID NO 1 ABOVE.) [AD-15, ID; NO: 2, first fifteen amino acids] | biologically active in producing neurite outgrowth | 1800 | >100 | 1 | –
V-NGF (protein) EDHPVHNLGEHSVCDSVSAWVTKTTATDIKGNTVTVMENVNLDNKVYKEYFFETKCKNPNPEPSGCRGIDSSHWNSYCTETDTFIKALTMEGNQASWRFIRIETACVCVITKKKGN | – | 900 | 5 | 0.005 | reaction with Anti-AD-10 / Anti-ADESH (in words) [5]: react
